# US4767872A, “Epoxide derivatives” (Centre National de la Recherche Scientifique (CNRS), priority 1985, dated 1988)
# Tests used:
# NRK B77 [1] = assay: Detection test with compound of formula V, malignant cells NRK B77 (Table II); format: cell-based; conditions: Rattus norvegicus, read-out: inhibition of the growth of the cells
# Method: (§1) Petri dishes having a diameter of 10 cm are seeded with 10^6 cells to be studied. At the end of 4 hours after seeding, the compound of formula V (with R'=R"=CH3, R'"=H) is added in the form of an aqueous solution containing 0.14 M NaCl, the solution having a volume of 100 microliters. The effect of the compound of formula V is studied at various concentrations.
# CEC = assay: Detection test with compound of formula V, normal cells CEC (Table II); format: cell-based, chicken; conditions: Gallus gallus, read-out: inhibition of the growth of the cells
# Method: as §1
# MRC5 [2] = assay: Detection test with compound of formula V, normal cells MRC5 (Table II); format: cell-based; conditions: Homo sapiens, read-out: inhibition of the growth of the cells
# Method: as §1
# HeLa [3] = assay: Detection test with compound of formula V, malignant cells HeLa (Table II); format: cell-based; conditions: Homo sapiens, read-out: inhibition of the growth of the cells
# Method: as §1
# NRK [4] = assay: Detection test with compound of formula V, benign transformed cells NRK (Table II); format: cell-based; conditions: Rattus norvegicus, read-out: inhibition of the growth of the cells
# Method: as §1
# MRC5 [5] = assay: Growth inhibition, normal diploid cells MRC5 (Table 1); format: cell-based; conditions: Homo sapiens, 96 h, 4 days, read-out: Cellular growth, percentage of inhibition
# Method: (§2) The tests are carried out in the following manner:
# (§3) A culture medium, constituted by the Eagle minimum medium to which has been added 10% of calf serum, is seed with 2×10^5 cells being studied.
# (§4) After 4 days of culture, the inhibition relative to non-treated control cultures is measured.
# NRK [6] = assay: Growth inhibition, established line NRK (Table 1); format: cell-based, rat; conditions: 4 days
# Method: as §2, §3, §4
# Toxicity on mice = format: in vivo; conditions: intraperitoneal
# Method: The study of the toxicity has been carried out on mice. The product of Example 1 is administered intraperitoneally at a dosage of 3 g/kg body weight daily for 8 days.
# HEp2 = assay: Growth inhibition, transformed cells HEp2 (Table 1); format: cell-based, human; conditions: 4 days
# Method: as §2, §3, §4
# NRK B77 [7] = assay: Growth inhibition, transformed cells NRK B77 (Table 1); format: cell-based; conditions: Rattus norvegicus, 96 h, 4 days, read-out: Cellular growth, percentage of inhibition
# Method: as §2, §3, §4
# HeLa [8] = assay: Growth inhibition, transformed cells HeLa (Table 1); format: cell-based; conditions: Homo sapiens, 96 h, 4 days, read-out: Cellular growth, percentage of inhibition
# Method: as §2, §3, §4
# 293 = assay: Growth inhibition, transformed cells 293 (Table 1); format: cell-based, human; conditions: 4 days
# Method: as §2, §3, §4
# [9] = target: T1, RALD (aldehyde reductase) (Rattus norvegicus, UniProt P51635); assay: In vitro test: inhibition of RALD in cellular homogenates of NRK B77 cells; format: biochemical
# T1 construct: NADPH, malonic dialdehyde substrate, pH 6
# T1 sequence (P51635 1-325): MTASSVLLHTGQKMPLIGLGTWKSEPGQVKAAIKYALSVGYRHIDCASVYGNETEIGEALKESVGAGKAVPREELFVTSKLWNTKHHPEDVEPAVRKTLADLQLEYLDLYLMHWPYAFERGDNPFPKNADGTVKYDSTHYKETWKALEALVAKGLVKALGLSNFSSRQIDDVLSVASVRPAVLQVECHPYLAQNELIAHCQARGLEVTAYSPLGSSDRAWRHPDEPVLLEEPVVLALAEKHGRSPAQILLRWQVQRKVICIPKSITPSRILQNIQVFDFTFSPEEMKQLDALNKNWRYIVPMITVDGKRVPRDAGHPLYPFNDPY
# Method: Cellular homogenates of NRK B77 cells which contain about 500 micrograms of the enzyme are prepared and incubated with the compound of Example 1 at doses of 0.2 mM, 0.8 mM and 1 mM. The incubation lasts for 15, 30 or 60 minutes.
# After incubation, an aliquot is added to the substrate which is 2 mM malonic dialdehyde dissolved in a phosphate buffer of pH 6 containing 0.35 mM of NADPH (co-factor of the enzyme).
# The optical density is measured every minute, for 5 minutes, at 340 nm.
# The transformation of NADPH into […] causes a linear reduction of the optical density. The inhibiting effect is evaluated by the difference between the variation of the optical density in the controls (without inhibitor) and the variation of the optical density with the inhibitor.
smiles,measurement,setting,value
CC(C)(N)C#CC=O,inhibition at 5 µM,"NRK B77 [1]; NRK B77, 0.5 × 10^-5 M",0%
same,inhibition at 100 µM,"NRK B77 [1]; NRK B77, 1 × 10^-4 M",16%
same,inhibition at 200 µM,"NRK B77 [1]; NRK B77, 2 × 10^-4 M",31%
same,inhibition at 400 µM,"NRK B77 [1]; NRK B77, 4 × 10^-4 M",57%
same,inhibition at 600 µM,"NRK B77 [1]; NRK B77, 6 × 10^-4 M",79%
same,inhibition at 5 µM,CEC; 0.5 × 10^-5 M,0%
same,inhibition at 100 µM,CEC; 1 × 10^-4 M,0%
same,inhibition at 200 µM,CEC; 2 × 10^-4 M,0%
same,inhibition at 400 µM,CEC; 4 × 10^-4 M,10%
same,inhibition at 600 µM,CEC; 6 × 10^-4 M,12%
same,inhibition at 5 µM,"MRC5 [2]; MRC5, 0.5 × 10^-5 M",0%
same,inhibition at 100 µM,"MRC5 [2]; MRC5, 1 × 10^-4 M",0%
same,inhibition at 200 µM,"MRC5 [2]; MRC5, 2 × 10^-4 M",0%
same,inhibition at 400 µM,"MRC5 [2]; MRC5, 4 × 10^-4 M",0%
same,inhibition at 600 µM,"MRC5 [2]; MRC5, 6 × 10^-4 M",18%
same,inhibition at 5 µM,HeLa [3]; 0.5 × 10^-5 M,0%
same,inhibition at 100 µM,HeLa [3]; 1 × 10^-4 M,18%
same,inhibition at 200 µM,HeLa [3]; 2 × 10^-4 M,36%
same,inhibition at 400 µM,HeLa [3]; 4 × 10^-4 M,78%
same,inhibition at 600 µM,HeLa [3]; 6 × 10^-4 M,91%
same,inhibition at 5 µM,NRK [4]; 0.5 × 10^-5 M,0%
same,inhibition at 100 µM,NRK [4]; 1 × 10^-4 M,0%
same,inhibition at 200 µM,NRK [4]; 2 × 10^-4 M,0%
same,inhibition at 400 µM,NRK [4]; 4 × 10^-4 M,0%
same,inhibition at 600 µM,NRK [4]; 6 × 10^-4 M,0%
"CC(C)(N)C#CC1(C)CO1 (stereo not shown) [Example 1, 5,6-epoxy-2,5-dimethyl-3-hexyne-2-amine]",inhibition at 100 µM,"MRC5 [5]; MRC5, 1 × 10^-4 M",0%
same,inhibition at 200 µM,"MRC5 [5]; MRC5, 2 × 10^-4 M",0%
same,inhibition at 400 µM,"MRC5 [5]; MRC5, 4 × 10^-4 M",0%
same,inhibition at 50 µM,"MRC5 [5]; MRC5, 5 × 10^-5 M",0%
same,inhibition at 600 µM,"MRC5 [5]; MRC5, 6 × 10^-4 M",0%
same,"Cellular growth, percentage of inhibition",NRK [6]; 6 × 10^-4 M,Dead
same,inhibition at 200 µM,"NRK [6]; Rattus norvegicus, 96 h, 2 × 10^-4 M, read-out: Cellular growth, percentage of inhibition",30%
same,inhibition at 400 µM,"NRK [6]; Rattus norvegicus, 96 h, 4 × 10^-4 M, read-out: Cellular growth, percentage of inhibition",60%
same,apparent toxicity,Toxicity on mice; 3 g/kg daily for 8 days,No apparent toxicity
same,LD50,"Toxicity on mice; mouse, in vivo, ip, read-out: DL50 (the source's name)",> 3000 mg/kg
same,"Cellular growth, percentage of inhibition","HEp2; HEp2, 6 × 10^-4 M",Dead
same,inhibition at 100 µM,"HEp2; Homo sapiens, HEp-2, 96 h, HEp2, 1 × 10^-4 M, read-out: Cellular growth, percentage of inhibition",0%
same,inhibition at 200 µM,"HEp2; Homo sapiens, HEp-2, 96 h, HEp2, 2 × 10^-4 M, read-out: Cellular growth, percentage of inhibition",20%
same,inhibition at 400 µM,"HEp2; Homo sapiens, HEp-2, 96 h, HEp2, 4 × 10^-4 M, read-out: Cellular growth, percentage of inhibition",80%
same,inhibition at 50 µM,"HEp2; Homo sapiens, HEp-2, 96 h, HEp2, 5 × 10^-5 M, read-out: Cellular growth, percentage of inhibition",0%
same,inhibition at 100 µM,"NRK B77 [7]; NRK B77, 1 × 10^-4 M",0%
same,inhibition at 200 µM,"NRK B77 [7]; NRK B77, 2 × 10^-4 M",0%
same,inhibition at 400 µM,"NRK B77 [7]; NRK B77, 4 × 10^-4 M",50%
same,inhibition at 50 µM,"NRK B77 [7]; NRK B77, 5 × 10^-5 M",0%
same,inhibition at 600 µM,"NRK B77 [7]; NRK B77, 6 × 10^-4 M",60%
same,inhibition at 100 µM,HeLa [8]; 1 × 10^-4 M,0%
same,inhibition at 200 µM,HeLa [8]; 2 × 10^-4 M,20%
same,inhibition at 400 µM,HeLa [8]; 4 × 10^-4 M,80%
same,inhibition at 50 µM,HeLa [8]; 5 × 10^-5 M,0%
same,inhibition at 600 µM,HeLa [8]; 6 × 10^-4 M,90%
same,"Cellular growth, percentage of inhibition","293; 293, 1 × 10^-4 M",50%
same,"Cellular growth, percentage of inhibition","293; 293, 2 × 10^-4 M",90%
same,"Cellular growth, percentage of inhibition","293; 293, 4 × 10^-4 M",Dead
same,"Cellular growth, percentage of inhibition","293; 293, 5 × 10^-5 M",20%
same,"Cellular growth, percentage of inhibition","293; 293, 6 × 10^-4 M",Dead
same,inhibition of the RALD activity,"[9]; 1 mM, 30 minutes",total inhibition
same,remaining activity at 800 µM,"[9]; 0.5 h, 0.8 mM, 30 minutes",~10%
same,remaining activity at 200 µM,"[9]; 1 h, 0.2 mM, 60 minutes",< 25%
